“And” between values parts separate entries of the source, which are not always exact repeats. Equal entries are not always repeated.
What was measured:
Assay type in all cases: cell-based, human
[1] = system: MLL leukemia cells (MV4;11, MOLM13, KOPN8, RS4;11); test: MTT cell viability assay, MLL leukemia cells as a group; settings: Homo sapiens, MLL leukemia cells
Description: (§1) Human leukemia cells K562, MV4;11 and RS4;11 (purchased from ATCC) and KOPN8, MOLM13 (purchased from DSMZ) were cultured in RPMI 1640 (Invitrogen) supplemented with 10% heat inactivated (h.i.) FBS and 1% penicillin/streptomycin (Invitrogen). SET2 cells (purchased from DSMZ) were cultured in RPMI 1640 supplemented with 20% h.i. FBS and 1% penicillin/streptomycin. Cells were plated at 1 × 10^5 to 2 × 10^5 cells/mL depending on cell line and treated with 0.25% DMSO or varying concentrations of compounds and incubated at 37 °C, 5% CO2 incubator for 7 days. Media was changed on day 3 or 4 and compounds were resupplied. […] Cell suspensions (100 μL) were transferred to the 96-well plates for each sample in quadruplicate at the time of media change. At day 7, 10 µL of MTT reagent (M6494, Molecular Probes™) was added to each well of the 96 well plate and incubated at 37 °C for 4 h. The formazan was then solubilized by adding 100 µL acidified 10% SDS solution and incubated at 37 °C overnight. Plates were read for absorbance at 570 nm using a PHERAstar BMG microplate reader. The experiments were performed two times in quadruplicates with calculation of mean and SD for each condition. Data were analyzed in Prism 8.0.0 to obtain GI50 values.
Supplementary Figure 4. Cell viability assay for AS-6 in MLL leukemia cell lines. Titration curves from the MTT cell viability assay performed after 7 days of treatment of human MLL1- […]
replicates. Representative graphs are shown from two independent MTT experiments performed […]
(§2) Supplementary Figure 7. […] (a)
Titration curves from the MTT cell viability assay performed after 4, 7, and 11 (or 10) days of […]
Titration curves from the MTT cell viability assay performed after 7 days of treatment of KOPN8 , MOLM13 and MV4;11 cell lines harboring MLL1 translocation (MLL1-r) or K562 cell line (non- […]
Representative graphs are shown from two independent MTT experiments performed for each cell line. GI50 values correspond to […]

MV4;11 cells = test: MTT cell viability assay; settings: for MV4;11 % activity: Fig S7a
Description: (§3) FBS and 1% penicillin/streptomycin. […] Media was changed on day 3 or 4 and compounds were resupplied. […] Cell suspensions (100 μL) were transferred to the 96-well plates for each sample in quadruplicate at the time of media change. At day 7, 10 µL of MTT reagent (M6494, Molecular Probes™) was added to each well of the 96 well plate and incubated at 37 °C for 4 h. The formazan was then solubilized by adding 100 µL acidified 10% SDS solution and incubated at 37 °C overnight. Plates were read for absorbance at 570 nm using a PHERAstar BMG microplate reader. The experiments were performed two times in quadruplicates with calculation of mean and SD for each condition. Data were analyzed in Prism 8.0.0 to obtain GI50 values.
as §2
(§4) Titration curves from the MTT cell viability assay performed after 4, 7, and 11 (or 10) days of
(§5) Titration curves from the MTT cell viability assay performed after 7 days of treatment of KOPN8 ,
(§6) MOLM13 and MV4;11 cell lines harboring MLL1 translocation (MLL1-r) or K562 cell line (non-
(§7) Representative graphs are shown
(§8) from two independent MTT experiments performed for each cell line.

MOLM13 cells = test: MTT cell viability assay; settings: Fig S7b
Description: as §3, §2, §4, §5, §6, §7, §8

K562 cells = test: MTT cell viability assay; settings: for % activity: Fig S7b
Description: as §1, §2, §4, §5, §6, §7
(§9) from two independent MTT experiments performed for each cell line. GI50 values correspond to […]

KOPN8 cells = test: MTT cell viability assay; settings: Fig S7a
Description: as §1, §2, §4, §5, §6, §7, §9

In the case of `NC(=S)c1cccc(-c2cn(C3CCN(S(=O)(=O)C(F)(F)F)CC3)c3cc(CNC(=O)C4CNC4)ccc23)c1` [AS-85], the GI50 [1] is reported as 5 to 25 µM, the “MV4;11 % activity” value (MV4;11 cells; log[AS-85] -4.60206, d4) is reported as 15.9329% and 16.3522% and 18.0892% and 16.4121% and the “MV4;11 % activity” value (MV4;11 cells; log[AS-85] -4.60206, d7) is reported as 5.045% and 5.128% and 5.211%. For the same molecule, the “MV4;11 % activity” value (MV4;11 cells; log[AS-85] -4.60206, d11) was 1.161% and 1.032% and 1.118%, the “MV4;11 % activity” value (MV4;11 cells; log[AS-85] -4.90309, d4) was 70.8595% and 67.0859% and 71.758% and 64.1509% and the “MV4;11 % activity” value (MV4;11 cells; log[AS-85] -4.90309, d7) was 25.0571% and 25.9705% and 23.8115% and 22.3998%. The “MV4;11 % activity” value (MV4;11 cells; log[AS-85] -4.90309, d11) was 9.6743% and 10.0613% and 9.029% and 8.943%, the “MV4;11 % activity” value (MV4;11 cells; log[AS-85] -5.20412, d4) was 102.965% and 99.1914% and 99.9102% and 86.1336% and the “MV4;11 % activity” value (MV4;11 cells; log[AS-85] -5.20412, d7) was 53.1243% and 51.7127% and 52.7922% and 54.6191%. The “MV4;11 % activity” value (MV4;11 cells; log[AS-85] -5.20412, d11) was 37.1063% and 36.8053% and 36.9343% and 41.621%, the “MV4;11 % activity” value (MV4;11 cells; log[AS-85] -5.50515, d4) was 92.5427% and 88.3498% and 97.8736% and 88.7691% and the “MV4;11 % activity” value (MV4;11 cells; log[AS-85] -5.50515, d7) was 76.7075% and 69.8983% and 73.8011% and 68.8188%. The “MV4;11 % activity” value (MV4;11 cells; log[AS-85] -5.50515, d11) was 72.8797% and 78.2113% and 64.4953% and 71.1168%, the “MV4;11 % activity” value (MV4;11 cells; log[AS-85] -5.80618, d11) was 77.7384% and 83.5429% and 90.8524% and the “MV4;11 % activity” value (MV4;11 cells; log[AS-85] -6.10721, d4) was 94.4594% and 94.1599% and 94.5792% and 108.955%. The “MV4;11 % activity” value (MV4;11 cells; log[AS-85] -6.10721, d7) was 101.951% and 92.1528% and 106.186% and 104.11%, the “MV4;11 % activity” value (MV4;11 cells; log[AS-85] -6.10721, d11) was 89.8205% and 93.8192% and 105.127% and 95.5821% and the “MV4;11 % activity” value (MV4;11 cells; log[AS-85] -6.40824, d4) was 98.1731% and 105.9% and 87.9305% and 107.996%. The “MV4;11 % activity” value (MV4;11 cells; log[AS-85] -6.40824, d7) was 98.879% and 95.8896% and 100.374% and 104.858%, the “MV4;11 % activity” value (MV4;11 cells; log[AS-85] -6.40824, d11) was 115.404% and 96.872% and 95.3671% and 92.3573% and the “% activity” value (MV4;11 cells; Fig S7b, MV4;11, log[AS-85] -5.80618) was 90.492% and 84.4301% and 90.3259% and 90.8242%. For the same molecule, the “% activity” value (MOLM13 cells; MOLM-13, log[AS-85] -4.60206) was 46.6646% and 47.2766% and 46.175% and 47.0318%, the “% activity” value (MOLM13 cells; MOLM-13, log[AS-85] -4.90309) was 81.426% and 94.7674% and 77.6316% and 82.4051% and the “% activity” value (MOLM13 cells; MOLM-13, log[AS-85] -5.20412) was 87.0563% and 95.9914% and 92.6867% and 98.1946%. The “% activity” value (MOLM13 cells; MOLM-13, log[AS-85] -5.50515) was 82.6499% and 85.9547% and 94.1555% and 88.7699%, the “% activity” value (MOLM13 cells; MOLM-13, log[AS-85] -5.80618) was 80.9364% and 84.3635% and 82.1603% and 93.6659% and the “% activity” value (MOLM13 cells; MOLM-13, log[AS-85] -6.10721) was 97.5826% and 103.213% and 93.6659% and 105.539%. The “% activity” value (MOLM13 cells; MOLM-13, log[AS-85] -6.40824) was 70.6548% and 70.0428% and 76.1628% and 72.1236%, the “% activity” value (K562 cells; K562, log[AS-85] -4.60206) was 94.8724% and 99.1495% and 96.3791% and 94.0462% and the “% activity” value (K562 cells; K562, log[AS-85] -4.90309) was 126.464% and 120.486% and 116.938% and 123.451%. The “% activity” value (K562 cells; K562, log[AS-85] -5.20412) was 111.154% and 105.225% and 103.767% and 109.259%, the “% activity” value (K562 cells; K562, log[AS-85] -5.50515) was 104.836% and 103.329% and 104.35% and 109.745% and the “% activity” value (K562 cells; K562, log[AS-85] -5.80618) was 94.1434% and 95.2126% and 95.6501% and 103.183%. For the same molecule, the “% activity” value (K562 cells; K562, log[AS-85] -6.10721) was 95.2612% and 103.524% and 101.142% and 100.073%, the “% activity” value (K562 cells; K562, log[AS-85] -6.40824) was 94.0462% and 95.8931% and 100.705% and 97.4484% and the “effect on growth/proliferation of K562 cells” value (K562 cells; leukemia cells without MLL1 translocations) was “no effect”. The KOPN8 % activity (KOPN8 cells; log[AS-85] -4.60206, d4) was 16.3539% and 14.6687% and 8.541% and 8.847%, the KOPN8 % activity (KOPN8 cells; log[AS-85] -4.60206, d7) was 5.4864% and the KOPN8 % activity (KOPN8 cells; log[AS-85] -4.60206, d10) was 12.6028% and 11.8131% and 12.208%. The KOPN8 % activity (KOPN8 cells; log[AS-85] -4.90309, d4) was 78.3991% and 80.3907% and 79.1651% and 80.3906%, the KOPN8 % activity (KOPN8 cells; log[AS-85] -4.90309, d7) was 47.9023% and 50.2997% and 49.1932% and 51.4062% and the KOPN8 % activity (KOPN8 cells; log[AS-85] -4.90309, d10) was 23.001% and 25.765% and 16.1566% and 29.977%. For the same molecule, the KOPN8 % activity (KOPN8 cells; log[AS-85] -5.20412, d4) was 76.2543% and 85.293% and 81.9226% and 91.2677%, the KOPN8 % activity (KOPN8 cells; log[AS-85] -5.20412, d7) was 72.4297% and 74.2739% and 78.5154% and 71.5076% and the KOPN8 % activity (KOPN8 cells; log[AS-85] -5.20412, d10) was 57.6176% and 47.8776% and 61.0398% and 75.3866%. The KOPN8 % activity (KOPN8 cells; log[AS-85] -5.50515, d4) was 81.7694% and 85.9058% and 95.8637% and 96.7828%, the KOPN8 % activity (KOPN8 cells; log[AS-85] -5.50515, d7) was 82.5726% and 92.5311% and 77.2245% and 78.5154% and the KOPN8 % activity (KOPN8 cells; log[AS-85] -5.50515, d10) was 103.817% and 88.6805% and 64.9885% and 80.7832%. For the same molecule, the KOPN8 % activity (KOPN8 cells; log[AS-85] -5.80618, d4) was 78.2459% and 90.8081% and 100.766% and 94.0253%, the KOPN8 % activity (KOPN8 cells; log[AS-85] -5.80618, d7) was 80.7284% and 79.9908% and 94.5597% and 75.0115% and the KOPN8 % activity (KOPN8 cells; log[AS-85] -5.80618, d10) was 93.8137% and 85.6532% and 79.9934% and 79.7302%. For the same molecule, the KOPN8 % activity (KOPN8 cells; log[AS-85] -6.10721, d4) was 86.825% and 91.4209% and 95.8637% and 91.5741%, the KOPN8 % activity (KOPN8 cells; log[AS-85] -6.10721, d7) was 99.9078% and 107.284% and 86.6298% and 85.5233% and the KOPN8 % activity (KOPN8 cells; log[AS-85] -6.10721, d10) was 118.032% and 101.579% and 87.2326% and 93.1556%. For the same molecule, the KOPN8 % activity (KOPN8 cells; log[AS-85] -6.40824, d4) was 98.6212% and 103.37% and 102.911% and 95.0977%, the KOPN8 % activity (KOPN8 cells; log[AS-85] -6.40824, d7) was 100.461% and 105.072% and 99.7234% and 94.7441% and the KOPN8 % activity (KOPN8 cells; log[AS-85] -6.40824, d10) was 81.3096% and 91.971% and 84.7318% and 80.9148%.

— paper PMC8121805, “Discovery of first-in-class inhibitors of ASH1L histone methyltransferase with anti-leukemic activity” (Nature Communications, 2021)
